# Laboratory results: US20220409602A1, “DOPAMINE D3 RECEPTOR LIGANDS FOR TREATMENT OF DYSKINESIA” (TEXAS BIOMEDICAL RESEARCH INSTITUTE, priority 2021, published 2022)
# “Also recorded” adds a separate entry of the source.
# Key:
# Type in all cases: in vivo, marmoset
# [1] = tested on: Parkinsonian marmosets; assay: motor activity recorded by actiwatch-mini during levodopa-induced dyskinesia; conditions: for motor activity / hyperactivity during peak-dose dyskinesia (actiwatch-mini): test drug 10 mg/kg with levodopa 20 mg/kg
# Procedure: (§1) For induction of dyskinesias, Levodopa (Sigma Aldrich) and carbidopa (Sigma Aldrich) at 1:1 were administered orally once daily for 5 days of a week. The drugs were mixed in either Ensure® pudding, cottage cheese, or marshmallows. […] Once the animals were acclimated to the drugs, the dose was increased to 20 mg/kg B.wt and continued for next 6 weeks.
# (§2) The diurnal and nocturnal behavior of the marmosets was monitored using the actiwatch mini (Camntech, UK) as previously described. The device is an accelerometer that measures the intensity of the test subject's omnidirectional movements in units or counts that are directly proportional to the animal's activity. The device (2 cm in diameter) was placed on a collar around the neck of the marmoset. The animals were acclimatized to the collar in short sessions of 15 min followed by gradual increments of 30 min, 1 hr, 3 hrs, 6 hrs and 12 hrs. Once acclimatized, the actiwatch mini was attached to the collar and the activity-rest data was recorded for a period of 24 hours on 3 separate days of each treatment. The actiwatches were placed on animals at 8:30 AM and the devices were preset to start recording activity data from 9:00 AM. At 11:30 AM either the vehicle or the drugs were orally administered to the animals. The following day, the actiwatch was removed after 9:00 AM and the data was transferred to a computer through an actiwatch reader using the actiwatch activity and sleep analysis-7 software (Camntech, UK). For sleep analysis, the period of sustained quiescence (marmosets sleep cycle) starting at 7:00 PM in the evening to early morning 6:30 AM (approximately 11½ hrs) was analyzed using the sleep analysis-7 software to quantify the sleep quality and wakeful periods. The duration of sleep time was corrected for individual variations in the animal's behavior to fall asleep at different time of the evening, thereby keeping the period of sleep time analyzed same for all the animals. The analyzed data was then exported to Excel® and plotted using the Graph pad prism statistical software. To determine the change in activity after the administration of drugs, actiwatch data in 10-minute bins were exported using the actiwatch activity and sleep analysis-7 software and plotted in Graph Pad Prism.
# [2] = tested on: Parkinsonian marmosets with levodopa-induced dyskinesia; assay: levodopa-induced dyskinesia in MPTP Parkinsonian marmosets, dyskinesia rating scale; conditions: for expression of levodopa-induced dyskinesia: oral, with levodopa 20 mg/kg, test drug 10 mg/kg where stated
# Procedure: (§3) Briefly, MPTP (Sigma Aldrich) (dissolved in physiological saline) at a concentration of 2 mg/ml was subcutaneously injected (2 mg/kg B.wt) for 5 consecutive days. After a wash out period of 72 hours from last MPTP injection, the marmosets were returned to their home cages and monitored twice daily for rest of the study period.
# as §1
# The severity of dyskinesia in the marmosets was categorized using a validated dyskinesia rating scale for NHPs. Dyskinesia was analyzed from 5-minute videos of the monkeys recorded at every 30 minutes on Tuesday, Wednesday and Thursday of each week. The videos were recorded between 9:30 AM-4:30 PM. Each day the vehicle or drugs were administered at 11:30 AM. The severity of dyskinesias was scored for different segments of the animal's body on a scale from 0 to 3, with 0=absent, 1=mild, 2=moderate, 3=severe. The body segments scored were: 1. Right upper limb dyskinesias (0-3); 2. Left upper limb dyskinesias (0-3); 3. Right lower limb dyskinesias (0-3); 4. left lower limb dyskinesias (0-3); 5. Trunk dyskinesias (0-3); 6, Head/facial dyskinesias (0-3). The severity of the rating was based on the frequency and amplitude of the abnormal movements. The total score is deducted from the six sub-scores to yield a dyskinesia score of 0 to 3: with 0=absent, 1=mild, manifesting by transient abnormal involuntary movements with choreic form, flicking of arms and limbs, increased running and hopping in the cages. […] 3=severe, characterized by a sustained dyskinesia manifesting with chorea and athetosis with sinuous writhing movements of the limbs, and dystonia with sustained extension of hind limbs and knees. The animals are unable to reach and grasp for treats (Video 1).
# [3] = tested on: Parkinsonian marmosets; assay: Parkinson's Disease Rating Scale (PDRS) in dyskinetic Parkinsonian marmosets
# Procedure: as §3, with “All the animals (n=3) have been previously treated with MPTP as described in detail. Briefly,” for “Briefly,”
# as §1
# The severity of symptoms in the marmosets was categorized using a validated Parkinsonian rating scale for NHP. The PDRS correlates highly with striatal dopamine concentrations detected by postmortem immunohistopathology and it is modeled on the Unified Parkinson's Disease Rating Scale (UPDRS) and the Hoehn & Yahr scale used clinically to categorize PD patients. The PDRS was performed in daylight by video recording animals for 30 minutes. The evaluation was carried out biweekly before and after MPTP injections. The videos were scored by a blinded operator using PDRS, with a maximal disability score of 57 in the following manner: 0=normal, 1=mild, 2=moderate, 3=severe; rest tremor, action tremor, tremor of the head, tremor right arm, tremor left arm, freezing, locomotion, fine motor skills right hand, fine motor skills left hand, bradykinesia right arm, bradykinesia left arm, posture, hypokinesia, balance, posture, startle response, gross motor skills right hand and gross motor skills left hand, apathy (defined as a state of indifference), vocalization, drooling or frothing, tongue/face/lips. Independently of the PDRS, rigidity was assessed by evaluating the resistance to passive joint movements and the range of motion during reaching for food. […]
# [4] = tested on: Parkinsonian marmosets; assay: PD-like symptoms and object retrieval task with barrier detour; conditions: compared to control or SWR-3-73
# Procedure: The PD-like symptoms evaluated included tremors, bradykinesia, and posture and general activity measured by an accelerometer device, the Actiwatch mini. In addition, motor and cognitive functions were measured using the object retrieval task with barrier detour.
# The object retrieval task with a barrier detour is a reward based behavioral testing system that was previously described to evaluate motor and cognitive functions of NHP. Briefly, the task requires the test subject to retrieve a reward (marshmallow) fastened to a tray from the open side (bypassing the barrier) of a transparent box. […] All parameters measured were previously described in detail. […] The entire process was recorded using a video camera and the recordings were then analyzed and scored by a blinded experimenter. During each trial, the following responses were scored (1) ability of the animal to reach the front, left, or right side of the box, scored under the term “reach act”; (2) hand of choice for the reach, either left or right, scored under the term “hand used”; (3) the outcome of the reach, either success or failure, scored under result section.
# Using the above parameters, additional variables were analyzed: 1) Motor problem: Reaching into the open side of the box but without retrieving the reward. […]
# [5] = tested on: Parkinsonian marmosets; assay: nocturnal activity and sleep analysis by actiwatch-mini; conditions: with levodopa 20 mg/kg
# Procedure: as §1, §2
# [6] = levodopa 20 mg/kg acute challenge
# [7] = first week of high dose levodopa/carbidopa 20 mg/kg
# [8] = levodopa 20 mg/kg combined with vehicle
# [9] = PD13R 0.1 to 10 mg/kg, SWR-3-73 and amantadine 10 mg/kg
compound,measurement,setting,value
N#Cc1cccc(N2CCN(CCCCNC(=O)c3ccc(-c4ccsc4)cc3)CC2)c1 [PD13R],hyperactivity during the peak-dose period (actograms),[1]; PD13R 0.1 to 10 mg/kg with levodopa 20 mg/kg,dose-dependent and significant reduction in the hyperactivity
same,motor activity / hyperactivity during peak-dose dyskinesia (actiwatch-mini),[1],motor activity remained within the therapeutic ON-period zone without dyskinesia; also recorded: maintained the motor activity within the ON-period without dyskinesia; also recorded: kept the motor activity within the ON-period; also recorded: inhibited the increased hyperactivity
same,reduction of the expression of dyskinesia in the peak-dose period,[2]; 10 mg/kg with levodopa 20 mg/kg,approximately 85%
same,anti-dyskinetic effects,[2]; PD13R 0.1 mg/kg with levodopa 20 mg/kg,no anti-dyskinetic effects were observed
same,time to reach peak-dose dyskinesia,[2]; PD13R 5 mg/kg with levodopa 20 mg/kg,1 h
same,dose with optimal anti-dyskinetic outcome,[2]; dose range with levodopa 20 mg/kg,10 mg/kg
same,expression of levodopa-induced dyskinesia,[2],inhibited the expression of levodopa-induced dyskinesia; also recorded: significantly suppresses the expression of levodopa-induced dyskinesia; also recorded: eliminates the expression of levodopa-induced dyskinesia; also recorded: eliminated the levodopa-induced dyskinesia; also recorded: significantly inhibited the expression of dyskinesias
same,Parkinson's Disease Rating Scale (PDRS),[3]; PD13R 10 mg/kg with levodopa in dyskinetic marmosets,significantly improved the PDRS
same,PD-like symptoms and movement coordination,[4],clear improvement in all PD-like symptoms and movement coordination
"N[C@@H](Cc1ccc(O)c(O)c1)C(=O)O [levodopa, L-3,4-dihydroxy-phenylalanine]",time to cross the dyskinesia threshold after injection (motor activity),[1]; [6],≤ 30 min
same,time to return to the ON-period without dyskinesia,[1]; [6],approximately 145 minutes
same,duration of dyskinesia after dosing,[2]; 6th week of high dose levodopa 20 mg/kg,up to 4 hours
same,duration of abnormal involuntary movements,[2]; [7],up to 180 minutes
same,time after dosing at which abnormal involuntary movements became visible,[2]; [7],approximately 30 minutes
same,duration of the peak-dose period of dyskinesias,[2]; [8],2 h
same,time to reach the peak-dose period of dyskinesias after dosing,[2]; [8],30 min
same,highest dyskinesia disability score,"[2]; levodopa 20 mg/kg combined with vehicle, scale 0 to 3",3
same,Parkinsonian symptoms (PDRS),[3]; high doses of levodopa,worsened the Parkinsonian symptoms
same,PDRS,[3]; physiological doses of levodopa,improved the PDRS
NC12CC3CC(CC(C3)C1)C2 [amantadine],motor activity / hyperactivity during peak-dose dyskinesia (actiwatch-mini),[1],inhibited the increased hyperactivity
same,motor activity / hyperactivity during peak-dose dyskinesia (actiwatch-mini),[1]; listed as Amantadine,maintained the motor activity within the ON-period without dyskinesia
same,expression of levodopa-induced dyskinesia,[2],inhibited the expression of dyskinesia; also recorded: significantly inhibited the expression of dyskinesias
same,actual awake time during the assumed sleep period,[5],actual awake time was significantly increased
same,effect on sleep (overall),[5],experienced abnormal irregular sleep and sleep disturbances
same,nocturnal activity,[5]; [9],clear abnormal increase in nocturnal activity; also recorded: significant increase in nocturnal activity
same,sleep efficiency,[5]; [9],significantly dropped; also recorded: decrease in sleep efficiency; also recorded: sleep efficiency significantly decreased
